What was measured:
[1] = test system: abnormal behavior and fatality due to ferrous chloride; assay: In vivo antioxidative activity: ferrous chloride administration into spinal subarachnoid cavity of mice; parameters: species or system Slc:ICR male mice; conditions: score after 60 minutes; for In vivo antioxidation action 50% inhibitory concentration (ID50), Intraperitoneal administration: intraperitoneal administration 30 minutes before ferrous chloride into spinal canal; for In vivo antioxidation action 50% inhibitory concentration (ID50), Oral administration: oral administration 30 minutes before ferrous chloride into spinal canal
Method: An in vivo antioxidative activity of the compounds of the present invention was evaluated from an abnormal behavior due to administration of ferrous chloride into spinal subarachnoid cavity of mice as well as an inhibitory effect of a fatality rate according to the process described in J. Med. Chem., 1997, Vol. 40, p. 559-573. Using Slc:ICR male mice (one group: 3 to 7 mice, 5 weeks old) (available from Nippon SLC Co., Ltd.), 5 μl of a 50 mM ferrous chloride physiological saline solution was administered to the spinal canal through the space between the fifth lumbar vertebrae and the sixth lumbar vertebrae. 20 to 60 minutes after administration of ferrous chloride, symptoms were observed and a score after 60 minutes was determined from symptoms shown in Table 32. […] As is apparent from the results, the compounds of the present invention have an in vivo antioxidation action.

[2] = test system: lipid peroxidation activity of each tissue homogenate (brain, heart and kidney); assay: Tissue migration properties: ex vivo lipid peroxidation inhibition in brain, heart and kidney homogenates; conditions: SD male rats, 100 mg/kg intraperitoneally, 30 minutes after administration; for Ex vivo lipid peroxidation inhibition inhibition ratio (%) Brain: brain homogenate; for Ex vivo lipid peroxidation inhibition inhibition ratio (%) Heart: heart homogenate; for Ex vivo lipid peroxidation inhibition inhibition ratio (%) Kidney: kidney homogenate
Method: (§1) An in vitro lipid peroxidation inhibition of the compounds of the present invention was evaluated by measuring a lipid peroxidation activity in a rat brain homogenate according to a process of Malvy, c., et al., Biochemical and Biophysical Research Communications, 1980, Vol. 95, p. 734-737. That is, a rat brain was extracted and a 5-fold amount of an aqueous phosphoric acid buffered saline solution (pH 7.4) (hereinafter abbreviated to PBS) was added to the brain under ice cooling, followed by homogenization using a Teflon homogenizer and further centrifugation at 10,000 g for 20 minutes to prepare a brain homogenate as a supernatant. To the brain homogenate thus prepared, 500 μM cysteine, 5 μM sulfuric acid monobasic iron and 100 mM KCl were added, followed by incubation at 37° C. for 30 minutes. Malondialdehyde produced by the […] of lipid peroxidation was measured by a thiobarbituric acid process.
Tissue migration properties of the compounds of the present invention were evaluated by measuring an ex vivo lipid peroxidation inhibition. A solution or suspension prepared by dissolving or suspending each of test compounds in an aqueous physiological saline solution or a 1% poly oxy ethylene hydrogenated castor oil (NIKKOL HCO-60, manufactured by Nikko Chemicals Co., Ltd.) physiological saline solution was intraperitoneally administered to SD male rats (one group: 3 rats, 6 weeks old) (available from Nippon SLC Co., Ltd.) at a dose of 100 mg/kg. 30 Minutes after administration, rats were bled to death by cutting the carotid artery and then the brain, heart and kidney were extracted. A lipid peroxidation activity of each tissue homogenate was measured by the process described in Example 18. An inhibition ratio in each tissue of the compounds of the present invention was determined from the amount of lipid peroxidation produced of a control group (physiological saline administration group) and a test compound administration group.

[3] = test system: lipid peroxidation in retina homogenate; assay: Retina migration properties: ex vivo retinal lipid peroxidation production inhibition; format: in vivo; conditions: SD male rats, retina taken after 30 minutes
Method: Retina migration properties of the compounds of the present invention were evaluated. To SD male rats (one group: 3 rats, 6 weeks old), a solution or suspension prepared by dissolving or suspending each of the test compounds in a 0.1N hydrochloric acid solution or a 1% poly oxy ethylene hydrogenated castor oil (NIKKOL HCO-60) solution was orally administered. After 30 minutes, both eyes were extracted and the retina was separated under ice cooling. A 5% homogenate solution of the retina was prepared in a 0.1M tris-hydrochloric acid buffer (pH 7.4) under ice cooling using a polytron homogenizer for a trace amount (NS-310E: manufactured by Nichion Irika Kiki Co., Ltd.) and, after autoxidation at 37° C. for one hour, the amount of lipid peroxidation produced was determined by a thiobarbituric acid process (MASUGI et al., vitamin 51, 21-29, 1977). A 30% inhibitory dose (ID30) was determined from the inhibition ratio at each dose. As is apparent from the results, the compounds of the present invention have an ex vivo retinal lipid peroxidation production inhibitory action and is also excellent in retina migration properties.

[4] = molecular target: T1, 15-LO obtained from reticulocyte of rabbit (Oryctolagus cuniculus, UniProt P12530); assay: 15-lipoxygenase (15-LO) inhibitory activity, 15-HETE production; format: biochemical; conditions: 15-LO from reticulocyte of rabbit, linoleic acid
T1 construct: 15-LO obtained from reticulocyte of rabbit; from tissue; host or cells: rabbit reticulocytes
T1 sequence (P12530 1-663): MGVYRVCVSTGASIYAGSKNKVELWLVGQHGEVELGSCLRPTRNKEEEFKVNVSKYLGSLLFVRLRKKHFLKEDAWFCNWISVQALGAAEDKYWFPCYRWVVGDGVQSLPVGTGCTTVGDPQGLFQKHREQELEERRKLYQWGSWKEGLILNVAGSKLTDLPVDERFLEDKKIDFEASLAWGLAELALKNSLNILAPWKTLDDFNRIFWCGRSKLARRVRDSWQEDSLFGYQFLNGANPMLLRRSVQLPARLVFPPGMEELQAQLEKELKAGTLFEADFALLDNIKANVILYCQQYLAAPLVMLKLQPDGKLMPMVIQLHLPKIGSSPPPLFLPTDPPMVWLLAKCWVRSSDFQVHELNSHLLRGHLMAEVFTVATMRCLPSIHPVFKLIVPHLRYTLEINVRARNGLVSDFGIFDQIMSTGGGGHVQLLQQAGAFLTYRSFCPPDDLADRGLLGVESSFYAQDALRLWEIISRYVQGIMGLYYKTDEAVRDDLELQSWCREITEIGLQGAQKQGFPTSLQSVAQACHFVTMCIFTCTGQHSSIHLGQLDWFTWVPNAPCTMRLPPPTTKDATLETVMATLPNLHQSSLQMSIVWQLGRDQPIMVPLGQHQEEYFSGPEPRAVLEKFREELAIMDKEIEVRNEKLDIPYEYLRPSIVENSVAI
Method: A 15-LO inhibitory activity was measured by a partially modified process of a process of Auerbach et al. (Auerbach B. J, et al., Anal. Biochem.: 201, 375-80, 1992). That is, 15-LO obtained from reticulocyte of rabbit and each of test compounds dissolved in DMSO (final concentration: 1%) were preincubated (4° C., 15 minutes) in phosphoric acid buffer (pH 7.4) and 256 μM linoleic acid was further added, followed by incubation (4° C., 10 minutes). The amount of 15-HETE produced as a result of incubation was determined by spectrophotometry (OD660nm) and 50% production inhibitory concentration (μM) against 15-LO of each test compound was calculated. Compounds (R-3) and (R-4) (edaravone) of the following formulas were used as a control drug.

5-lipoxygenase (5-LO) = molecular target: T2, 5-lipoxygenase (5-LO) (Homo sapiens, UniProt P09917); assay: 5-lipoxygenase (5-LO) inhibitory activity, leukotriene B4 production in human peripheral blood mononuclear cells; format: cell-based; conditions: for 5-LO, percentage given after >10: bracketed value beside IC50 >10 μM, not explained, presumably inhibition at 10 μM; for IC50: human peripheral blood mononuclear cells, A23187, leukotriene B4 production
T2 construct: human peripheral blood mononuclear cells and each of test compounds dissolved in DMSO (final concentration: 1%) were preincubated; endogenous in cells; host or cells: human peripheral blood mononuclear cells
T2 sequence (P09917 1-674): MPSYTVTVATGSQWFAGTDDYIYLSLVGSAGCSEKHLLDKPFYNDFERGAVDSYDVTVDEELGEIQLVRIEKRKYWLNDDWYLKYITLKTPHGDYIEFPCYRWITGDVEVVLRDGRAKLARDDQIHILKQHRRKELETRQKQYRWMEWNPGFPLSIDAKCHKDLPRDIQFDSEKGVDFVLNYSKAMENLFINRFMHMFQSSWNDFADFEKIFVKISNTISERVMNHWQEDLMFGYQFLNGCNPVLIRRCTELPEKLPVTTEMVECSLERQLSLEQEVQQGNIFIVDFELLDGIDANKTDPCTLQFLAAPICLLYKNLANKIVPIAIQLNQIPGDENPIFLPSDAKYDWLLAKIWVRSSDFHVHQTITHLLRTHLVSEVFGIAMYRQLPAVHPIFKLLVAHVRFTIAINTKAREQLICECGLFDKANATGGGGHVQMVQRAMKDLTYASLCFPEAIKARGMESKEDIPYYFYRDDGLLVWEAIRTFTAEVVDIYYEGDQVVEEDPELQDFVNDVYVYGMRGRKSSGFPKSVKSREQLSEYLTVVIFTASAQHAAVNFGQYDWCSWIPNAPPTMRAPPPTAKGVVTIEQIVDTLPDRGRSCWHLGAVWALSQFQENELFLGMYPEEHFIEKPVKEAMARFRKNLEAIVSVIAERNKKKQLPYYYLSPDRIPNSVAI
Method: A 5-LO inhibitory activity was measured by a partially modified process of a process of Carter et al. (Carter G. W, et al, J. Pharmacol. Exp. Ther.: 256, 929-37, 1991). That is, human peripheral blood mononuclear cells and each of test compounds dissolved in DMSO (final concentration: 1%) were preincubated (37° C., 15 minutes) in a Hanks' balanced salt solution and 30 μM A23187 was further added, followed by incubation (37° C., 30 minutes). The amount of leukotriene B4 produced as a result of incubation was determined by enzyme immunoassay and a 50% production inhibitory concentration (μM) against 5-LO of each test compound was calculated.

[5] = Acute oral toxicity, single oral dose, mortality rate after 7 days; conditions: mouse, in vivo, male mice, observed for 7 days
Method: A single dose of each of the compounds of the present invention was orally administered to male mice. After observing for 7 days, a mortality rate was determined.

[6] = test system: lipid peroxidation activity in a rat brain homogenate; assay: In vitro lipid peroxidation inhibition (rat brain homogenate, thiobarbituric acid process); format: biochemical; conditions: read-out: In vitro lipid peroxidation inhibition 50% inhibitory concentration (IC50 μM), 500 μM cysteine, 5 μM sulfuric acid monobasic iron, 100 mM KCl, 37° C. for 30 minutes
Method: as §1

melting point [°C] | Compound | In vivo antioxidation action 50% inhibitory concentration (ID50), Intraperitoneal administration [1] [mg/kg] | In vivo antioxidation action 50% inhibitory concentration (ID50), Oral administration [1] [mg/kg] | Ex vivo lipid peroxidation inhibition inhibition ratio (%) Brain [2] [%] | Ex vivo lipid peroxidation inhibition inhibition ratio (%) Heart [2] [%] | Ex vivo lipid peroxidation inhibition inhibition ratio (%) Kidney [2] [%] | Lipid peroxidation inhibition 30% inhibitory concentration (ID30, oral administration) in ex vivo retina [3] [mg/kg] | IC50 [4] [nM] | 5-LO, percentage given after >10 (5-lipoxygenase (5-LO)) [%] | IC50 (5-lipoxygenase (5-LO)) [nM] | LD50 at 7 days [5] [mg/kg] | IC50 [6] [µM]
 | Cc1c(C)c2c(c(C)c1N)CC(C)(CN1CCN(c3ccc(-n4ccnc4)cc3)CC1)O2 (racemic) [Compound B-1-2, 4-(±)-(5-amino-2,4,6,7-tetramethyldihydrobenzofuran-2-ylmethyl)-1-(4-imidazol-1-ylphenyl)piperazine] | 27 | 13 | 79 | 93 | 89 | 5.7 |  |  |  |  | 
 | CC1=NN(c2ccccc2)C(=O)C1 [Compound R-4, edaravone] |  |  |  |  |  |  | 5570 | 32 | > 10000 |  | 
 | Cc1c(C)c2c(c(C)c1N)CC(C)(CN1CCC(c3ccccc3)CC1)O2 (stereo not drawn) [Compound R-3, reference compound] |  |  |  |  |  |  | 3260 | 34 | > 10000 | < 300 | 
205 to 207 | Cc1c(C)c2c(c(C)c1N)CC(C)(CN1CCN(c3ccc(-c4ccn[nH]4)cc3)CC1)O2 (stereo not drawn) [Compound B-1-34] |  |  |  |  |  |  | 5560 |  | 162 |  | 
 | Cc1c(C)c2c(c(C)c1O)CCC(C)(C(=O)Nc1ccc(-n3ccnc3)cc1)O2 (stereo not drawn) [Compound R-2, reference compound] | 20 | 53 | 45 | 57 | 84 |  |  |  |  |  | 0.23
 | Cc1c(C)c2c(c(C)c1O)CC(C)(C(=O)Nc1ccc(-n3ccnc3)cc1)O2 (stereo not drawn) [Compound R-1, reference compound] | >30 | >30 | 68 | 59 | 75 |  |  |  |  |  | 0.23
 | Cc1c(C)c2c(c(C)c1N)CC(C)(CNc1ccc(-c3ccn[nH]3)cc1)O2 (racemic) [Compound B-2-5-1, 4-(±)-(5-amino-2,4,6,7-tetramethyldihydrobenzofuran-2-ylmethylamino)-phenyl-5-1H-pyrazole] | 16 | 17 | 96 | 88 | 88 |  | 1400 |  | 160 | > 2000 | 0.42
 | Cc1c(C)c2c(c(C)c1N)CC(C)(C(=O)N1CCN(c3ccc(-n4ccnc4)cc3)CC1)O2 (racemic) [Compound B-1-1, (±)-(5-amino-2,4,6,7-tetramethyldihydrobenzofuran-2-yl)-[4-(4-imidazol-1-ylphenyl)-piperazin-1-yl]carboxamide] | 4.4 | 19 | 96 | 88 | 95 |  |  |  |  |  | 

— patent publication US7553837B2, “Phenylazole compounds production process and antioxidants” (Nippon Soda Co., Ltd., priority 2003, dated 2009)
